In patent EP1007514B1, “HETEROCYCLIC KETONES AS NPY Y5 ANTAGONISTS” (BAYER CORPORATION, priority 1997, dated 1999):

Experiments:
[1] = molecular target: T1, human NPY Y1 receptor subtype (Homo sapiens, UniProt P25929); assay: NPY Y1 receptor binding, [125I]PYY on SK-N-MC cells; details: test compounds at 5 µM final concentration, [125I]PYY about 50 pM, read-out: IC50 (µM) NPY receptor indicated hY1
T1 construct: host or cells: SK-N-MC cells
T1 sequence (P25929 1-384): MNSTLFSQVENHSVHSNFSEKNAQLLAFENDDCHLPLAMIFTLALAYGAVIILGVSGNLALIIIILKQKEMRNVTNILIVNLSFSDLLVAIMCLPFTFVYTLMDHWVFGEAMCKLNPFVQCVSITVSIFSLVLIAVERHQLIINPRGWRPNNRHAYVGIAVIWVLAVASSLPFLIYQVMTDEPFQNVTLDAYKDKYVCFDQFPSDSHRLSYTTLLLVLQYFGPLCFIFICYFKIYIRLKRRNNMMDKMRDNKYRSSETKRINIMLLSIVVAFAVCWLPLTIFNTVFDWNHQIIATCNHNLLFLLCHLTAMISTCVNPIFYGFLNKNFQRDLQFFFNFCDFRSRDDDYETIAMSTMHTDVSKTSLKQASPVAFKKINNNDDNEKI
Procedure: For instance, test compounds antagonistic to human NPY Y1 receptor subtype can be identified by a modified method of Gordon et al., J. Neurochem. 55:506-513,(1990), wherein SK-N-MC cells (ATCC, Rockville, ND) are plated in 24-well plates. Once confluent, the cells are rinsed with Dulbecco's phosphate buffered saline (DPBS). Cells are then preincubated in binding buffer containing serum-free DMEM, 25 mM HEPES (pH 7.3), 0.5% bovine serum albumin (BSA), 0.1% bacitracin and 0.1mM phenylmethylsulfonyl fluoride for 30 minutes at room temperature. Test compounds at a final concentration of 5 µM, and [^125I] PYY (about 50 pM:NEN-DuPont) are added to the wells, and the cells are incubated for an additional 3 hours at room temperature, followed by rinsing with ice-cold DPBS. Nonspecific binding is defined with 1 µM NPY. After lysing the cells with 1% Triton X-100, the amount of radioactivity in the lysates is quantitated with a gamma counter.

human NPY Y2 = molecular target: T2, human NPY Y2 (Homo sapiens, UniProt P49146); assay: NPY Y2 receptor membrane binding, [125I]PYY; details: membrane protein; 25 pM [125I]PYY; test compounds at 5 µM final concentration; read-out: IC50 (µM) NPY receptor indicated hY2
T2 sequence (P49146 1-381): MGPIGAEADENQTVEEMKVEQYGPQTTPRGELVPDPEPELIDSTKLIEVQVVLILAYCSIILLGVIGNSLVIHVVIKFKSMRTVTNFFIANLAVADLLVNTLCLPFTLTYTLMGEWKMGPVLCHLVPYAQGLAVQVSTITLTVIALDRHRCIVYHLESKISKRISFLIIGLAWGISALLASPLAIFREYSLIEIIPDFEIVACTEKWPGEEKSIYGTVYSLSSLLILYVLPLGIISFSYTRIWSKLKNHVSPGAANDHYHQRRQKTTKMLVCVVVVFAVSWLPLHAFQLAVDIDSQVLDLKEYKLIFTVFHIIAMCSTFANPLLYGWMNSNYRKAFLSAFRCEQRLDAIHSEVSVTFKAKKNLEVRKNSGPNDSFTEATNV
Procedure: Assays to determine binding affinity for human NPY Y2 and Y4/PP1 receptor subtypes are performed on GF/C Millipore 96-well plates pretreated with 0.02% polyethylenimine. […] Samples consist of membrane protein, 25 pM [^125I]PYY and test compounds at 5 µM final concentration. Nonspecific binding is defined by 1 µM NPY. The binding buffer for human Y4/PP1 binding consists of 137 mM NaCl, 5.4 mM KCl, 0.44 mM KH2PO4, 1.26 mM CaCl2, 0.81 mM MgSO4, 20 mM HEPES, 1 mM dithiothreitol, 0.1% bacitracin, 100 mg/l streptomycin sulfate, 1 mg/l aprotinin, 10 mg/ml soybean trypsin inhibitor and 0.3% BSA, pH 7.4. Samples consist of membrane protein, 50 pM human [^125I] human PP (hPP:NEN DuPont, Boston MA) and test compounds diluted to a final concentration of 5 µM. One µM hPP is used to define nonspecific binding. After a 2 hour incubation at room temperature with constant mixing, the samples are aspirated on a vacuum manifold, and rinsed with ice-cold binding buffer. The amount of radioactivity in each well is quantitated with either gamma counting or liquid scintillation.

human Y4/PP1 = human Y4/PP1 (Homo sapiens, UniProt P50391); assay: NPY Y4/PP1 receptor membrane binding, [125I] human PP; details: membrane protein; 50 pM [125I] human PP; test compounds at 5 µM final concentration; read-out: IC50 (µM) NPY receptor indicated hY4/pp1
Procedure: Assays to determine binding affinity for human NPY Y2 and Y4/PP1 receptor subtypes are performed on GF/C Millipore 96-well plates pretreated with 0.02% polyethylenimine. The binding buffer for rat NPY Y2 receptor subtype binding is Krebs-Ringer bicarbonate (pH 7.4) containing 0.01% BSA and 0.005% bacitracin. Samples consist of membrane protein, 25 pM [^125I]PYY and test compounds at 5 µM final concentration. Nonspecific binding is defined by 1 µM NPY. The binding buffer for human Y4/PP1 binding consists of 137 mM NaCl, 5.4 mM KCl, 0.44 mM KH2PO4, 1.26 mM CaCl2, 0.81 mM MgSO4, 20 mM HEPES, 1 mM dithiothreitol, 0.1% bacitracin, 100 mg/l streptomycin sulfate, 1 mg/l aprotinin, 10 mg/ml soybean trypsin inhibitor and 0.3% BSA, pH 7.4. Samples consist of membrane protein, 50 pM human [^125I] human PP (hPP:NEN DuPont, Boston MA) and test compounds diluted to a final concentration of 5 µM. One µM hPP is used to define nonspecific binding. After a 2 hour incubation at room temperature with constant mixing, the samples are aspirated on a vacuum manifold, and rinsed with ice-cold binding buffer. The amount of radioactivity in each well is quantitated with either gamma counting or liquid scintillation.

[2] = molecular target: T3, rat NPY Y5 receptor subtype (Rattus norvegicus, UniProt Q63634); assay: NPY Y5 receptor membrane binding, [125I]PYY (rat); details: for IC50: membrane protein, 75-100 pM [125I]PYY, 50% inhibition of specific binding, read-out: IC50 (µM) NPY receptor indicated rY5; for NPY receptor indicated rY5, %@1µM: printed in the rY5 IC50 column
T3 sequence (Q63634 1-445): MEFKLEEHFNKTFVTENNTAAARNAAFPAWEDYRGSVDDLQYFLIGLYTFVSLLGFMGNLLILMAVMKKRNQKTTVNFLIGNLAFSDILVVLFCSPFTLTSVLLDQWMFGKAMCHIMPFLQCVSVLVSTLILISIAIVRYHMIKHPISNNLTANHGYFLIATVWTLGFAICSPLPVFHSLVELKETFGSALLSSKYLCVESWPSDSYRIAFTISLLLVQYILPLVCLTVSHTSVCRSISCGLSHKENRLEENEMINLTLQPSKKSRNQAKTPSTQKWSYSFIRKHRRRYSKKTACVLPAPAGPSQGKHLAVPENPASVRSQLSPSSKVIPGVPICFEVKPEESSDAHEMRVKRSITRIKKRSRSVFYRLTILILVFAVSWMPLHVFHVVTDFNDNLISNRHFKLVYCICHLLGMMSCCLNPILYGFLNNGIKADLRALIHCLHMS
Procedure: (§1) Assays to determine human and rat NPY Y5 receptor subtype binding affinity are performed on GF/C Millipore 96-well plates pretreated with 0.02% polyethylenimine. The binding buffer is 25 mM Tris, 120 mM NaCl, 5 mM KCl, 1.2 mM KH2PO4, 2.5 mM CaCl2, 1.2 mM MgSO4, 0.1% BSA and 0.5 mg/ml bacitracin, pH 7.4. Samples consist of membrane protein, 75-100 pM [^125I] PYY (porcine, NEN-DuPont) and test compounds diluted in binding buffer. Nonspecific binding is defined by 1 µM PYY. After a 2 hour incubation at room temperature with constant mixing, the samples are aspirated on a vacuum manifold and rinsed with ice-cold binding buffer. The amount of radioactivity in each well is quantitated with either gamma counting or liquid scintillation. IC50 values, which correspond to 50% inhibition of specific binding, are determined with non-linear regression analysis.

rat NPY Y5 receptor = molecular target: T4, rat NPY Y5 receptor (Rattus norvegicus, UniProt Q63634); assay: In vitro functional assay, forskolin-stimulated cAMP in cells stably expressing the receptor; type: cell-based; details: percentage of forskolin-stimulated adenylate cyclase; 1 µM forskolin; test compound 10 µM; 80 - 120% indicates no significant agonistic effect
T4 construct: expressed in transfected cells
T4 sequence (Q63634 1-445): T3 sequence (Q63634 1-445)
Procedure: An in vitro functional assay to determine rat NPY Y5 receptor subtype binding affinity is performed by resuspending cells stably expressing the rat NPY Y5 receptor in serum-free DMEM containing 10 mM HEPES (pH 7.4) and 1 mM isobutylmethylxanthine (IBMX). One µM forskolin and test compounds at a final concentration of 10 µM are then added to the cells. After a 20 minute incubation of the samples at 37°C, the assay is stopped by placing the samples in boiling water for 3 minutes. The cAMP produced in each sample is quantitated with a radioimmunoassay kit (NEN DuPont). Data are expressed as a percentage of forskolin-stimulated adenylate cyclase. Data between 80 - 120% indicates no significant agonistic effect.

[3] = molecular target: T5, human NPY Y5 receptor subtype (Homo sapiens, UniProt Q15761); assay: NPY Y5 receptor membrane binding, [125I]PYY (human); details: membrane protein; 75-100 pM [125I]PYY; 50% inhibition of specific binding; read-out: IC50 (µM) NPY receptor indicated hY5
T5 sequence (Q15761 1-445): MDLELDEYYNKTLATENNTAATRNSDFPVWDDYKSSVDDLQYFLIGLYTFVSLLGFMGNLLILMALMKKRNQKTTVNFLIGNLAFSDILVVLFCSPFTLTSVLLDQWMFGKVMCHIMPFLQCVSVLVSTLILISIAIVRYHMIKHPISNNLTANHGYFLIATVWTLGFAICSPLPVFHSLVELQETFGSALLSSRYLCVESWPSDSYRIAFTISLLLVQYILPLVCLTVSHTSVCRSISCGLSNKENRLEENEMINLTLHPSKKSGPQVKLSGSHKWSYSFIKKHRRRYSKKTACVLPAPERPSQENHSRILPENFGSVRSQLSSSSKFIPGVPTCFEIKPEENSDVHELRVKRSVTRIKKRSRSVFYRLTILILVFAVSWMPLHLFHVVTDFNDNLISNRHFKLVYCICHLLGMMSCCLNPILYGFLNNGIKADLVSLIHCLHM
Procedure: as §1

Chain of human Y4/PP1 (P50391 whole entry): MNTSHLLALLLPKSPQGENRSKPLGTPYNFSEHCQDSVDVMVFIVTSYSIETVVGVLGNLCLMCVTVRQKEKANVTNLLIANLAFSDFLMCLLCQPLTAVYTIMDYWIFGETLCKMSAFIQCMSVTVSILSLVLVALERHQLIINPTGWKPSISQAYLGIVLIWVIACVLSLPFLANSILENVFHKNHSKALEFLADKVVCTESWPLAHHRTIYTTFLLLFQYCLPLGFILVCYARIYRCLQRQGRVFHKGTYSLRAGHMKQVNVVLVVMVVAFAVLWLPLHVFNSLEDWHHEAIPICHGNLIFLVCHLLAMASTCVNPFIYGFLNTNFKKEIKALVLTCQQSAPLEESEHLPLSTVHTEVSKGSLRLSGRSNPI

Compound: Cc1ccc(S(=O)(=O)CC(C(=O)c2ccc3ccccc3n2)c2ccccc2)cc1 (centres unmarked) [Compound 1]
- IC50 [1]: > 5 µM
- IC50 (human NPY Y2): > 5 µM
- IC50 (human Y4/PP1): > 5 µM
- IC50 [2]: 9.8 µM
- % forskolin at 10 µM (rat NPY Y5 receptor): 78%

Compound: Cc1ccc(S(=O)(=O)CC(C(=O)c2ncc[nH]2)c2ccccc2)cc1 (centres unmarked) [Compound 3, (1H-Imidazol-2-yl)-2-phenyl-3-(toluene-4-sulfonyl)-propan-1-one]
- IC50 (human NPY Y2): > 5 µM
- IC50 (human Y4/PP1): > 5 µM
- NPY receptor indicated rY5, %@1µM [2]: 30%@1µM

Compound: Cc1ccc(SCC(C(=O)c2nc3ccccc3[nH]2)c2ccccc2)cc1 (centres unmarked) [Compound 4, (1H-Benzoimidazol-2-yl)-2-phenyl-3-p-tolylsulfanyl-propan-1-one]
- IC50 (human NPY Y2): > 5 µM
- IC50 (human Y4/PP1): > 5 µM
- NPY receptor indicated rY5, %@1µM [2]: 2%@1µM

Compound: Cc1ccc([S+]([O-])CC(C(=O)c2nc3ccccc3[nH]2)c2ccccc2)cc1 (centres unmarked) [Compound 5, (1H-Benzoimidazol-2-yl)-2-phenyl-3-(toluene-4-sulfinyl)-propan-1-one]
- IC50 (human NPY Y2): > 5 µM
- IC50 (human Y4/PP1): > 5 µM
- IC50 [3]: 0.025 µM
- IC50 [2]: 0.025 µM

Compound: Cc1ccc(S(=O)(=O)CC(C(=O)c2nc3ccccc3[nH]2)c2ccc(F)cc2)cc1 (centres unmarked) [Compound 9, 1-(1H-Benzoimidazol-2-yl)-2-(4-fluoro-phenyl)-3-(toluene-4-sulfonyl)-propan-1-one]
- IC50 [1]: > 5 µM
- IC50 (human Y4/PP1): > 5 µM
- IC50 [3]: 0.015 µM
- IC50 [2]: 0.014 µM
- % forskolin at 10 µM (rat NPY Y5 receptor): 105%

Compound: O=C(c1nc2ccccc2[nH]1)C(CS(=O)(=O)c1ccc(Br)cc1)c1ccccc1 (centres unmarked) [Compound 11, 1-(1H-Benzoimidazol-2-yl)-3-(4-bromo-benzenesulfonyl)-2-phenyl-propan-1-one]
- IC50 (human NPY Y2): > 5 µM
- IC50 (human Y4/PP1): > 5 µM
- IC50 [3]: 0.008 µM

Compound: O=C(c1nc2ccccc2[nH]1)C(CS(=O)(=O)c1cccc2ccccc12)c1ccccc1 (centres unmarked) [Compound 12, 1-(1H-Benzoimidazol-2-yl)-3-(naphthalene-1-sulfonyl)-2-phenyl-propan-1-one]
- IC50 [1]: > 5 µM
- IC50 (human NPY Y2): > 5 µM
- IC50 (human Y4/PP1): > 5 µM
- IC50 [3]: 0.011 µM

Compound: Cc1ccc(S(=O)(=O)CC(C(=O)c2nc3cc(C)ccc3[nH]2)c2ccccc2)cc1 (centres unmarked) [Compound 13, (5-Methyl-1H-benzoimidazol-2-yl)-2-phenyl-3-(toluene-4-sulfonyl)-propan-1-one]
- IC50 (human NPY Y2): > 5 µM
- IC50 (human Y4/PP1): > 5 µM
- IC50 [3]: 0.045 µM
- IC50 [2]: 0.036 µM

Compound: Cc1ccc(S(=O)(=O)CC(C(=O)c2nc3ccccc3[nH]2)c2ccccc2)cc1 (centres unmarked) [Compound 15, 1-(1H-Benzoimidazol-2-yl)-2-phenyl-3-(toluene-4-sulfonyl)-propan-1-one]
- IC50 [1]: > 5 µM
- IC50 (human NPY Y2): > 5 µM
- IC50 (human Y4/PP1): > 5 µM
- IC50 [3]: 0.005 µM
